Experimental data: patent US7307101B2, “Use of 20-HETE synthesizing enzyme inhibitors as therapy for cerebral vascular disease” (MCW Research Foundation, Inc., priority 2000, dated 2007)

Key:
Assay type in all cases: in vivo, rat
rats with SAH [1] = experiment: Effect on rCBF after SAH, drug given before SAH; settings: rats pretreated before SAH, 17-ODYA 1.5 nmol intrathecally
Description: (§1) Animals. Experiments were performed on male Sprague-Dawley rats (9-12 weeks old), purchased from Harlan Sprague-Dawley, Inc. (Indianapolis, Ind.). The rats were housed in an Animal Care Facility at the Medical College of Wisconsin, which is approved by the American Association for the Accreditation of Laboratory Animal Care. All protocols involving animals received approval by the Animal Care Committee of the Medical College of Wisconsin.
(§2) Surgical preparation. Rats were anesthetized with ketamine (Ketaject® 20 mg/kg i.m.) and thiobutabarbital sodium (Inactin® 50 mg/kg i.p.). A cannula was placed in the trachea and the rats were artificially ventilated using a small animal ventilator (SAR-830, CWE, Inc., Ardmore, Pa.) with a mixture of 30% O2 in N2. The femoral vein was cannulated for the infusion of drug and the rats received an i.v. infusion of 0.9% NaCl solution at a rate of […] to replace fluid losses. The femoral artery was cannulated for measurement of mean arterial pressure (MAP) and arterial blood gases. Endtidal partial pressure of carbon dioxide (pCO2) was controlled at 38 mmHg by adjusting the minute ventilation according to the reading of an CO2 analyzer (Capstar-100 IITC, Inc., Woodland Hills, Calif.). Blood samples were collected at the beginning and end of the experiment and analyzed using a blood gas analyzer (ABL 300, Radiometer, Copenhagen, Denmark) to validate the endtidal pCO2 readings. Anesthesia was maintained by administering additional amounts of thiobutabarbital (8 mg/kg i.v.) as needed. Rectal body temperature was maintained at 37±1° C.
Induction of SAH and measurement of cerebral blood flow. SAH was induced by injection of 0.3 ml autologous arterial blood into the Cisterna Magna using a modification of a posterior cranio-cervical approach of a model of SAH. Delgado T J et al., Stroke 16: 595-602 (1985); Solomon R A et al., Stroke 16: 58-64 (1985). The head of the rat was placed in a stereotactic head holder and the atlanto-occipital membrane was exposed by bluntly separating the overlying neck muscles in the midline. The occipital bone and the atlas were visualized. A 30 gauge needle attached to PE-10 was inserted using a stereomicroscope into the Cistema Magna by penetrating the atlanto-occipital membrane. Then, 0.3 ml of freshly drawn unheparinized arterial blood was injected into the Cistema Magna at a rate of 35 μl/min using a syringe pump. This created a massive SAH that was confirmed in all rats at autopsy. Blood was found overlying the cerebello-medullary junction posteriorly and around the basal artery and the vessels of the Circle of Willis.
(§3) Cerebral blood flow (CBF) was continuously measured using laser Doppler flowmetry through a thinned cranial window. […] A PF 103 laser Doppler flow (LDF) probe was positioned over the cranial window and CBF was monitored using a PF-3 laser Doppler flowmeter (Perimed, Stockholm, Sweden).
Other animals received 17-ODYA (1.5 nmol) or vehicle in a volume of 50 μl that was injected directly into the Cistema Magna using a micromanipulator and a 30 gauge needle. The CBF recorded over the last 5 minutes of the control period immediately before initiation of SAH served as the control value. […] CBF was recorded for 2 min intervals at 10, 20, 30, 60, 90 and 120 minutes after completion of the injection of the blood. The CBF data are expressed as percentage change from control.

rats with SAH [2] = experiment: Effect on rCBF when given after SAH has been established; settings: 1 mg/kg i.v. 30 min after induction of SAH
Description: as §1
Surgical preparation. Rats were anesthetized with ketamine (Ketaject® 20 mg/kg i.m.) and thiobutabarbital sodium (Inactin® 50 mg/kg i.p.). […] Endtidal partial pressure of carbon dioxide (pCO2) was controlled at 38 mmHg by adjusting the minute ventilation according to the reading of an CO2 analyzer (Capstar-100 IITC, Inc., Woodland Hills, Calif.). Blood samples were collected at the beginning and end of the experiment and analyzed using a blood gas analyzer (ABL 300, Radiometer, Copenhagen, Denmark) to validate the endtidal pCO2 readings. […]
as §3
0.3 ml of blood was injected into the Cistema Magna of rats to induce SAH. […] The CBF data are expressed as percentage change from control.

[3] = Physiological parameters (MAP, endtidal pCO2) during the SAH experiment; settings: rats, any time
Description: as §2

## CCCCc1ccc(N=CNO)c(C)c1 [HET0016, N-hydroxy-N′-(4-butyl-2-methylphenyl)-formamidine]
Rats with SAH [1]; HET0016 10 mg/kg i.v. 30 min prior
  reduction of the initial fall in rCBF at 10 min: about 40%
Rats with SAH [1]; HET0016 10 mg/kg i.v.
  time after induction of SAH within which rCBF recovered fully to values not different from control: ≤ 60 min
Rats with SAH [2]
  time after treatment at which cerebral blood flow was back to the control value: 70 min
[3]
  MAP (blood pressure) versus vehicle: no difference
  endtidal pCO2 versus vehicle: no significant differences
